Data reported in the OPERA property sets (Mansouri et al. 2018).

With `COC(=O)C1(S(=O)(=O)c2ccccc2)CCCC1` the logP was 1.98.
For `CC(C)OC(=O)C1(S(=O)(=O)c2ccc([N+](=O)[O-])cc2)CCC1`, the logP was 2.36.
Compound `COC(=O)C1(S(=O)(=O)c2ccc(Cl)cc2)CCC1` has a logP of 2.28.
`COC(=O)C1(S(=O)(=O)c2ccccc2)CCC1` gave a logP of 1.63.
In the case of `COC(=O)C1(S(=O)(=O)c2ccc([N+](=O)[O-])cc2)CC1`, the logP is reported as 1.33.
`CCOC(=O)C1(S(=O)(=O)c2ccc(C)cc2)CC1` showed a logP of 2.23.
`CC(C)OC(=O)C1(S(=O)(=O)c2ccc(Cl)cc2)CC1` showed a logP of 2.64.
With `COC(=O)C1(S(=O)(=O)c2ccc(Cl)cc2)CC1` the logP was 2.03.
In the case of `COC(=O)C1(S(=O)(=O)c2ccc(Br)cc2)CC1`, the logP is reported as 2.32.
`COC(=O)C1(S(=O)(=O)c2ccc(Br)cc2)CCCCC1` showed a logP of 2.94.
`COC(=O)C1(S(=O)(=O)c2ccc(C)cc2)CC1` showed a logP of 1.77.
For `CC(C)OC(=O)C1(S(=O)(=O)c2ccc(Cl)cc2)CCCC1`, the logP was 3.16.
`CC(C)OC(=O)C1(S(=O)(=O)c2ccc([N+](=O)[O-])cc2)CCCCC1` showed a logP of 2.84.
With `COC(=O)C1(S(=O)(=O)c2ccc(Br)cc2)CCCC1` the logP was 2.73.
In the case of `CC(C)OC(=O)C1(S(=O)(=O)c2ccc([N+](=O)[O-])cc2)CC1`, the logP is reported as 2.05.
With `Cc1ccc(S(=O)(=O)C2(C(=O)OC(C)C)CC2)cc1` the logP was 2.52.
`COC(=O)C1(S(=O)(=O)c2ccccc2)CCCCC1` gave a logP of 2.3.
`CCOC(=O)C1(S(=O)(=O)c2ccc(C)cc2)CCC1` gave a logP of 2.31.
`COC(=O)C1(S(=O)(=O)c2ccccc2)CC1` showed a logP of 1.43.
With `CC(C)OC(=O)C1(S(=O)(=O)c2ccc([N+](=O)[O-])cc2)CCCCCC1` the logP was 3.41.
Work on `COC(=O)C1(S(=O)(=O)c2ccc(Br)cc2)CCC1` yielded a logP of 2.45.
With `CC(C)(C)OC(=O)C1(S(=O)(=O)c2ccc(Cl)cc2)CC1` the logP was 2.68.
Compound `Cc1ccc(S(=O)(=O)C2(C(=O)OC(C)C)CCC2)cc1` has a logP of 2.78.
